Data reported in patent publication US20240002361A1, “COMPOSITIONS AND METHODS FOR BLOCKING NEUROPILIN RECEPTOR 1 FOR THE TREATMENT OF PAIN AND PREVENTION OF VIRAL ENTRY” (Arizona Board of Regents on Behalf of the University of …, priority 2020, published 2024).

What was measured:
NRP-1/VEGF-A interaction [1] = molecular target: T1, NRP-1/VEGF-A interaction (Homo sapiens, UniProt O14786); assay: ELISA-based NRP1-VEGF-A165 protein binding assay (single concentration); details: compounds 12.5 μM (Spike S1 100 nM), biotinylated VEGF-A165 10 nM; ± standard error of the mean, n = 11
T1 construct: coated with the extracellular domain of human NRP-1 (containing the a1a2 and the b1b2 regions); purchased Fisher, Hampton, NH 50-101-8343
T1 sequence (O14786 22-856 limits assumed): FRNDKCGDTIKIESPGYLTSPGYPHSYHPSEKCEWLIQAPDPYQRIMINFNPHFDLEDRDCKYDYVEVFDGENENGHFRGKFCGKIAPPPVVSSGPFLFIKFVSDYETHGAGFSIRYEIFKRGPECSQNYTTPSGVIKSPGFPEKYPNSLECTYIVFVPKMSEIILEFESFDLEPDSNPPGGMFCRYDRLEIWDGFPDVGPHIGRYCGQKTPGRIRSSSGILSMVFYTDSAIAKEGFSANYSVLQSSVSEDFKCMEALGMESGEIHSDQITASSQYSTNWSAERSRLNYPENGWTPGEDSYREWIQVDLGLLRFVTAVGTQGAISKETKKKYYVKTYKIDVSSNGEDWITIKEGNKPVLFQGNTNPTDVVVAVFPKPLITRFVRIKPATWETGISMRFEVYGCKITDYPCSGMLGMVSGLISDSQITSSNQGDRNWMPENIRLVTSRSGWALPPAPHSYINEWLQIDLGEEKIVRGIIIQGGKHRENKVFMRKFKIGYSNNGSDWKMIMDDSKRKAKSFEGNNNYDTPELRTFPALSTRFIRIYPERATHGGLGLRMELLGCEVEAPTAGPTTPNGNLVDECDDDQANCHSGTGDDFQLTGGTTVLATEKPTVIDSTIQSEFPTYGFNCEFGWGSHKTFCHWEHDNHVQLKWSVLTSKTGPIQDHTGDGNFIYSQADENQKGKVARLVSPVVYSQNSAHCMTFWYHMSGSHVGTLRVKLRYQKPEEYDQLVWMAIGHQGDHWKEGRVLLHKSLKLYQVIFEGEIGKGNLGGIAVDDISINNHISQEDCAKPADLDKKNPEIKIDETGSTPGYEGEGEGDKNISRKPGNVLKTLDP

pY1175 VEGFR2 = assay: In cell Western for detecting inhibition of VEGFR2 activation by VEGF-A165; assay type: cell-based, mouse; details: CAD cells, absence of stimulation by VEGF-A
SNI rats = assay: Spared nerve injury (SNI)-induced mechanical allodynia, paw withdrawal threshold; assay type: in vivo, rats (Sprague Dawley, male); details: day 21 after surgery, 2.14 mg/5 ml intrathecally, n=5
Description: FIG. 8 is a line graph showing antagonism of NRP-1/VEGF-A signaling using compound 4. […] SNI elicited mechanical allodynia 21 days after surgery. Paw withdrawal thresholds for SNI rats (Sprague Dawley, male) administered saline (vehicle) or NRP-1 inhibitor (2.14 mg/5 ml) intrathecally (i.t.); n=5). P values, versus control, are indicated. Data are shown as mean±s.e.m. and were analyzed by non-parametric two-way analysis of variance where time was the within subject factor and treatment was the between subject factor (post hoc: Sidak). The experiments were analyzed by an investigator blinded to the treatment. […]
The assessment of tactile allodynia (i.e., a decreased threshold for paw withdrawal after probing with normally innocuous mechanical stimuli) involved testing the withdrawal threshold of the paw in response to probing with a series of calibrated fine (von Frey) filaments. […] The withdrawal threshold was determined by sequentially increasing and decreasing the stimulus strength (the ‘up and down’ method, and the data analyzed using the nonparametric method of Dixon (as described by Chaplan and Bach, J. Neurosci. Meth. 1994, 53, 55-63) with results expressed as the mean withdrawal threshold. The withdrawal threshold is a level that is statistically significant. Typically, greater than 50% deviation from the baseline could be allodynic.

NRP-1/VEGF-A interaction [2] = molecular target: T1, NRP-1/VEGF-A interaction; assay: ELISA-based NRP1-VEGF-A165 protein binding assay (concentration-response, IC50); details: 20 nM biotinylated hVEGF-A165 with 4 μg/ml heparin, n=3, read-out: Calculated IC50 values of inhibiting the NRP-1/VEGF-A interaction
Description: Plates (96-well, Nunc Maxisorp; Thermo Fisher Scientific, Waltham, MA, USA) were coated with human Neuropilin-1-Fc (200 ng per well, Cat #50-101-8343, Fisher, Hampton, NH) and incubated at 4° C. overnight. The following day, the plates were washed and blocked with 3% BSA in PBS to minimize non-specific adsorptive binding to the plates. EG00229 (Cat #6986, Tocris) or the indicated compounds were added at different concentrations and incubated for 30 min at room temperature prior to adding biotinylated human VEGF-A165 (Cat #BT10543-025, R&D systems) at 20 nM with 4 μg/ml of heparin. As a negative control, some wells received PBS containing 3% BSA and as a positive control only hVEGF-A165 was used. The plates were incubated at room temperature with shaking for 2 h. Next, the plates were washed with PBS 0.05% Tween to eliminate unbound protein. Bound biotinylated VEGF was detected by streptavidin-HRP (Cat #016-030-084, Jackson immunoResearch). Tetramethylbenzidine (Cat #DY999, R&D Systems, St. Louis, MO) was used as the colorimetric substrate. The optical density of each well was determined immediately, using a microplate reader (Multiskan Ascent; Thermo Fisher Scientific) set to 450 nm with a correction wavelength of 570 nm. Percentage of inhibition was calculated by the following formula: […]
where S is the optical density measured in the wells with the compounds, N is the optical density measured in the negative control wells and P is the optical density in the positive control wells. The IC50 was calculated using a non-linear regression function with GraphPad Prism Version 9. The data are presented as log (inhibitor) [M] versus normalized response-variable slope. Data are the means±S.E.M. of three independent experiments.
Finally, the ability of the compounds to interfere with the NRP-1NEGF-A interaction was evaluated using an enzyme linked immunosorbent assay (ELISA), as previously described (Moutal, et al., Pain 2021, 12(1), 243-252). Plates were coated with the extracellular domain of human NRP-1 (containing the a1a2 and the b1b2 regions) and the compounds were added to disrupt the NRP-1NEGF-A interaction. The biotinylated human VEGF-A used in the experiments described above (Moutal, et al., Pain 2021, 12(1), 243-252) was discontinued. For the instant studies, biotinylated hVEGF-A (Cat #BT10543-025, R&D systems) was used. Because of that, the known NRP-1 antagonist EG00229 and compound 4 from the above series of inhibitors (Moutal, et al., Pain 2021, 12(1), 243-252) were also tested in the instant studies.

**Q.** Which Rel % inhibition (NRP-1/VEGF-A interaction [1]) does the source give for `Cc1nc(N2CCOCC2)ncc1-c1cc(=O)[nH]c(Nc2ccccc2)n1` [Compound 4] here?
**A.** 68 ± 5%

**Q.** And the “inhibition of basal VEGFR2 phosphorylation” value (pY1175 VEGFR2)?
**A.** showed inhibition

**Q.** What about the “reversal of SNI-induced mechanical allodynia (paw withdrawal threshold)” value (SNI rats) of the same compound?
**A.** reverses spared nerve injury (SNI)-induced mechanical allodynia

**Q.** What about the IC50 (NRP-1/VEGF-A interaction [2]) of the same compound?
**A.** 8.4 µM
